Laboratory results from ChEMBL document CHEMBL3044580, “Insecticide selectivity and behavioral response of the earwig Doru luteipes” (2011).
≈ marks a conversion by molar mass, not a printed value. Calls of active or inactive are those of the source. The calls are words filed in the database; no cut-off is given here.

Key:
Spodoptera frugiperda [1] = test: Insecticidal activity in second instar Spodoptera frugiperda (fall armyworm) in compound treated maize leaf assessed as mortality measured by Time-mortality bioassay; type: functional
Doru [2] = test: Relative toxicity in adult Doru luteipes (earwigs) in compound treated maize leaf assessed as mortality measured after 48 hr by concentration-mortality bioassay; type: functional
Doru [3] = test: Insecticidal activity against adult Doru luteipes (earwigs) in compound treated maize leaf assessed as reduction in distance walked in fully-treated arenas measured during 10 min compound exposure by behavioral locomotory bioassay; type: functional, organism-based
[4] = Selectivity ratio of LC50 for adult earwig species Doru luteipes to LC50 for second instar fall armyworm Spodoptera frugiperda by concentration-mortality bioassay; type: functional
Doru [5] = test: Insecticidal activity against adult Doru luteipes (earwigs) in compound treated maize leaf assessed as reduction in walking velocity in fully-treated arenas measured during 10 min compound exposure by behavioral locomotory bioassay; type: functional, organism-based
Spodoptera frugiperda [6] = test: Insecticidal activity in second instar Spodoptera frugiperda (fall armyworm) in compound treated maize leaf assessed as mortality measured after 48 hr by concentration-mortality bioassay; type: functional
Spodoptera frugiperda [7] = test: Relative toxicity in second instar Spodoptera frugiperda (fall armyworm) in compound treated maize leaf assessed as mortality measured by Time-mortality bioassay; type: functional
Doru [8] = test: Insecticidal activity against adult Doru luteipes (earwigs) in compound treated maize leaf assessed as mortality measured by time-mortality bioassay; type: functional
Doru [9] = test: Insecticidal activity against adult Doru luteipes earwig ) in compound treated maize leaf assessed as higher resting time in half-treated arenas measured during 10 min compound exposure by behavioral locomotory bioassay; type: functional, organism-based
Doru [10] = test: Insecticidal activity against adult Doru luteipes (earwigs) in compound treated maize leaf assessed as mortality measured after 48 hr by concentration-mortality bioassay; type: functional
Doru [11] = test: Insecticidal activity against adult Doru luteipes earwigs) in compound treated maize leaf assessed as higher in number of stops in half-treated arenas measured during 10 min compound exposure by behavioral locomotory bioassay; type: functional, organism-based
Spodoptera frugiperda [12] = test: Relative toxicity in second instar Spodoptera frugiperda (fall armyworm) in compound treated maize leaf assessed as mortality measured after 48 hr by concentration-mortality bioassay; type: functional
Doru [13] = test: Relative toxicity in adult Doru luteipes (earwigs) in compound treated maize leaf assessed as mortality measured by time-mortality bioassay; type: functional
Doru [14] = test: Insecticidal activity against adult Doru luteipes (earwigs) in compound treated maize leaf assessed as insect avoidance by behavioral bioassay; type: functional, organism-based

For `CC[C@H]1CCC[C@H](O[C@H]2CC[C@H](N(C)C)[C@@H](C)O2)[C@@H](C)C(=O)C2=C[C@@H]3[C@@H](C=C(C)[C@@H]4C[C@@H](O[C@@H]5O[C@@H](C)[C@H](OC)[C@@H](OC)[C@H]5OC)C[C@@H]34)[C@@H]2CC(=O)O1.CC[C@H]1CCC[C@H](O[C@H]2CC[C@H](N(C)C)[C@@H](C)O2)[C@@H](C)C(=O)C2=C[C@@H]3[C@@H](C=C[C@@H]4C[C@@H](O[C@@H]5O[C@@H](C)[C@H](OC)[C@@H](OC)[C@H]5OC)C[C@@H]34)[C@@H]2CC(=O)O1`, the LT50 (Spodoptera frugiperda [1]) was 47.17 min, the Ratio (Doru [2]) was 3528 and the inhibition (Doru [3]) was “Active”. For the same compound, the RatioLC50 [4] was 3530, the inhibition (Doru [5]) was “Active” and the LC50 (Spodoptera frugiperda [6]) was 0.04 µg/mL. The Ratio (Spodoptera frugiperda [7]) was 2.77, the LT50 (Doru [8]) was 11.43 h and the inhibition (Doru [9]) was “Active”. The LC50 (Doru [10]) was 215 µg/mL, the inhibition (Doru [11]) was “Active” and the Ratio (Spodoptera frugiperda [12]) was 99.47. For the same compound, the Ratio (Doru [13]) was 6.61.

For `CC1(C)[C@H](/C=C(\Cl)C(F)(F)F)[C@@H]1C(=O)O[C@@H](C#N)c1cccc(Oc2ccccc2)c1` (relative stereo) [REL-LAMBDA CYHALOTHRIN], the LT50 (Spodoptera frugiperda [1]) was 25.03 min, the Ratio (Doru [2]) was 45000 and the RatioLC50 [4] was 23.7. For the same compound, the LC50 (Spodoptera frugiperda [6]) was 0.7 µg/mL (≈ 1.56 µM), the Ratio (Spodoptera frugiperda [7]) was 1.47 and the LT50 (Doru [8]) was 2.12 h. The LC50 (Doru [10]) was 16.6 µg/mL (≈ 36.9 µM), the Ratio (Spodoptera frugiperda [12]) was 6 and the Ratio (Doru [13]) was 1.23.

`CNC(=O)c1cc(Cl)cc(C)c1NC(=O)c1cc(Br)nn1-c1ncccc1Cl` [CHLORANTRANILIPROLE] gave an LT50 (Spodoptera frugiperda [1]) of 84.61 min, a Ratio (Doru [2]) of 1 and a RatioLC50 [4] of 980000. The LC50 (Spodoptera frugiperda [6]) was 0.77 µg/mL (≈ 1.59 µM), the Ratio (Spodoptera frugiperda [7]) was 4.97 and the Ratio (Spodoptera frugiperda [12]) was 5.46.

For `CCOCn1c(-c2ccc(Cl)cc2)c(C#N)c(Br)c1C(F)(F)F` [CHLORFENAPYR], the LT50 (Spodoptera frugiperda [1]) was 116.34 min, the Ratio (Doru [2]) was 14000 and the inhibition (Doru [14]) was “Active”. The RatioLC50 [4] was 22.5, the LC50 (Spodoptera frugiperda [6]) was 2.37 µg/mL (≈ 5.81 µM) and the Ratio (Spodoptera frugiperda [7]) was 6.83. The LT50 (Doru [8]) was 21.58 h, the LC50 (Doru [10]) was 53.3 µg/mL (≈ 131 µM) and the Ratio (Spodoptera frugiperda [12]) was 1.78. It also gave a Ratio (Doru [13]) of 12.48.

With `CCOP(=S)(OCC)Oc1nc(Cl)c(Cl)cc1Cl` [CHLORPYRIFOS] the LT50 (Spodoptera frugiperda [1]) was 21.52 min, the Ratio (Doru [2]) was 550000 and the inhibition (Doru [14]) was “Active”. The RatioLC50 [4] was 1.2, the LC50 (Spodoptera frugiperda [6]) was 1.18 µg/mL (≈ 3.37 µM) and the Ratio (Spodoptera frugiperda [7]) was 1.26. It also gave an LT50 (Doru [8]) of 1.73 h, an LC50 (Doru [10]) of 1.4 µg/mL (≈ 3.99 µM) and a Ratio (Spodoptera frugiperda [12]) of 3.57. For the same compound, the Ratio (Doru [13]) was 1.

In the case of `CC1(C)[C@H](C(=O)O[C@H](C#N)c2cccc(Oc3ccccc3)c2)[C@@H]1C=C(Br)Br` [DELTAMETHRIN], the LT50 (Spodoptera frugiperda [1]) is reported as 44.84 min, the Ratio (Doru [2]) is reported as 33000 and the RatioLC50 [4] is reported as 152. For the same compound, the LC50 (Spodoptera frugiperda [6]) was 0.18 µg/mL (≈ 0.356 µM), the Ratio (Spodoptera frugiperda [7]) was 2.63 and the LC50 (Doru [10]) was 22.6 µg/mL (≈ 44.7 µM). The Ratio (Spodoptera frugiperda [12]) was 23.2.

In the case of `CCOc1ccc(C(C)(C)COCc2cccc(Oc3ccccc3)c2)cc1` [ETOFENPROX], the LT50 (Spodoptera frugiperda [1]) is reported as 17.03 min, the Ratio (Doru [2]) is reported as 1133.5 and the inhibition (Doru [14]) is reported as “Active”. For the same compound, the RatioLC50 [4] was 198, the LC50 (Spodoptera frugiperda [6]) was 3.37 µg/mL (≈ 8.95 µM) and the Ratio (Spodoptera frugiperda [7]) was 1. The LC50 (Doru [10]) was 668 µg/mL (≈ 1770 µM) and the Ratio (Spodoptera frugiperda [12]) was 1.25.

`CNC(=O)ON=C(C)SC` [METHOMYL] gave an LT50 (Spodoptera frugiperda [1]) of 29.18 min, a Ratio (Doru [2]) of 348 and a RatioLC50 [4] of 517. It also gave an LC50 (Spodoptera frugiperda [6]) of 4.21 µg/mL (≈ 26 µM), a Ratio (Spodoptera frugiperda [7]) of 1.71 and an LC50 (Doru [10]) of 2180 µg/mL (≈ 13400 µM). It also gave a Ratio (Spodoptera frugiperda [12]) of 1.
